Experiments:
[1] = system: BV-2; assay: Antiinflammatory activity in mouse BV2 cells assessed as inhibition of LPS-induced NO-production preincubated for 1 hr followed by LPS stimulation and measured after 24 hrs by microplate reader based colorimetric assay; type: functional, cell-based; conditions: for inhibition: time 25.0 hrs
[2] = system: BV-2; assay: Antiinflammatory activity in mouse BV2 cells assessed as inhibition of LPS-induced NO-production by measuring NO level at 10 uM preincubated for 1 hr followed by LPS stimulation and measured after 24 hrs by microplate reader based colorimetric assay (reference value: 26.6 +/- 8.1 uM); type: functional
[3] = system: BV-2; assay: Cytotoxicity against mouse BV2 cells assessed as cell viability at 10 uM after 24 hrs by MTT assay; type: cell-based; conditions: bv-2, 24 h

Row | Compound | IC50 [1] | inhibition [1] | NO level [2] | Activity [3]
1 | COc1cc(O)c2c(c1)[C@H](O)[C@]13CO[C@H](O)[C@]1(O3)C2=O | 3.2 µM | Dose-Dependent Effect | 2.6 µM | Non-Toxic
2 | COc1cc(O)c2c(c1)[C@H](O)[C@@]1(CO)O[C@@]1(CO)C2=O | 5 µM | Dose-Dependent Effect | 10.5 µM | Non-Toxic
3 | CCC/C=C/C1=C(CO)[C@@H](O)[C@@H]2O[C@@H]2[C@@H]1O |  |  | 24.3 µM | Non-Toxic
4 | C[C@@H]1OC(=O)c2c(O)ccc(O)c2[C@@H]1O |  |  | 28.9 µM | Non-Toxic
5 | CC(O)C/C=C/[C@H](O)[C@H](O)/C=C/c1cccc(O)c1CO (some centres undefined) |  |  | 26.6 µM | Non-Toxic
6 | C/C=C/[C@@H]1O[C@@H]2[C@@H](C)OC(=O)[C@]2(O)C[C@H]1O |  |  | 25.5 µM | Non-Toxic

Continued, in another order:

Row | IC50 [1] | Compound | inhibition [1] | NO level [2] | Activity [3]
7 | 4.5 µM | C/C=C/[C@H]1O[C@@H]2C(=C[C@H]1O)C(=O)O[C@@H]2C |  | 2.2 µM | Non-Toxic
8 | 1.1 µM | C/C=C/[C@@H]1O[C@H]2C(=C[C@H]1O)C(=O)O[C@@H]2C |  | 1.9 µM | Non-Toxic
9 | 3 µM | COc1cc(/C=C/C(=O)CC(=O)/C=C/c2ccc(O)c(OC)c2)ccc1O [CURCUMIN] |  | 5.5 µM | 
